# Results published in US20170355956A1, “COMPOSITIONS FOR INCREASING SURVIVAL OF MOTOR NEURON PROTEIN (SMN) LEVELS IN TARGET CELLS AND METHODS OF USE THEREOF FOR THE TREATMENT OF SPINAL MUSCULAR ATROPHY” (RUTGERS, THE STATE UNIVERSITY OF NEW JERSEY, priority 2014, published 2017).
# B1: wild type: wild type DcpS (scavenger decapping enzyme) used to complement DcpS knockdown cells (protein, UniProt Q96C86 2-337, looked up)
# m7GpppX diphosphatase: ADAAPQLGKRKRELDVEEAHAASTEEKEAGVGNGTCAPVRLPFSGFRLQKVLRESARDKIIFLHGKVNEASGDGDGEDAVVILEKTPFQVEQVAQLLTGSPELQLQFSNDIYSTYHLFPPRQLNDVKTTVVYPATEKHLQKYLRQDLRLIRETGDDYRNITLPHLESQSLSIQWVYNILDKKAEADRIVFENPDPSDGFVLIPDLKWNQQQLDDLYLIAICHRRGIRSLRDLTPEHLPLLRNILHQGQEAILQRYRMKGDHLRVYLHYLPSYYHLHVHFTALGFEAPGSGVERAHLLAEVIENLECDPRHYQQRTLTFALRADDPLLKLLQEAQQS
# Columns and labels:
# Assay type in all cases: cell-based
# [1] = tested on: endogenous DcpS exon 4 splice site; test: Antisense splice switching of endogenous DcpS, splicing patterns by RT-PCR; conditions: 293T cells
# Procedure: FIG. 6. Splice switching of endogenous DcpS intron 4 to the DcpS^In15 alternative site. Vivo-morpholino antisense oligonucleotide (red line) was added to GM03813 cells and DcpS splicing tested. Schematic on lower right depicts the splicing pattern resulting with the indicated concentration of vivo-morpholino and arrows denote the primers used. Endogenous splicing is inhibited and shifted to the alternative site 45nt downstream as well as exon 4 skipping. Bottom panel is a control of exon2-exon3 junction not affected by the oligonucleotide. An exemplary antisense molecule comprises 5′ TTCCAGCCAGAAA CCTTTACCTGCT 3′ (SEQ ID NO: 1). However, antisense oligonucleotides can be designed to hybridize to the any contiguous 20-25 mer present in the DcpS variant sequence shown in FIG. 6.
# Shifting of the endogenous DcpS gene to express the DcpS^In15 variant can also be accomplished by antisense oligonucleotide splice switching technology. With this approach, an antisense oligonucleotide complementary to the endogenous splice site is used to block the endogenous site and shift the splicing pattern to the DcpS^In15 pattern in SMA patient cells. The objective is to alter the endogenous DcpS splicing in order to generate sufficient levels of DcpS^In15 thereby elevating SMN2 gene expression and increasing levels of full length SMN protein. 293T cells were treated with 5 μM antisense morpholino oligonucleotide containing a cell permeable guanidinium based dendramer delivery system (vivo-morpholino; GeneTools LLC) for 24 hours and splicing patterns determined by RT-PCR. […] Instead ˜50% of the splicing utilizes the DcpS^In15 splice site 45 nucleotides downstream analogous to that observed in the homozygous DcpS^In15 ID patient cells, and ˜50% results in both sites being blocked and skipping of exon 4 entirely. In the latter case (lower panel in FIG. 6), splicing bypasses exon 4 and goes from exon 3 to exon 5. […] The invention also encompasses optimized oligonucleotide sequences comprising altered nucleotide backbones, and small molecules that can shift splicing to further improve levels of DcpS^In15, thereby elevating SMN2 levels and providing a therapeutic intervention for SMA patients.
# fl-SMN2 mRNA = fl-SMN2 mRNA in GM03813 SMA patient cells expressing DcpS variants; conditions: GM03813 cells knocked down for DcpS, stably expressing shRNA-resistant DcpS variant
# Procedure: (§1) FIGS. 3A-3C. DcpS^In15 increases fl-SMN2 mRNA and SMN protein in GM03813 SMA patient cells. FIG. 3A. fl-SMN2 mRNA levels were tested in GM03813 cells knocked down for DcpS and stably expressing the indicated shRNA-resistant DcpS variants. […] (Average of three biological replicates) FIG. 3B. Western of SMN and DcpS proteins from cells used in A. (Average of two biological replicates). FIG. 3C. SMN protein levels increase in GM0813 cells expressing DcpS^In15 with a background of endogenous levels of DcpS protein.
# SMN protein = test: Western of SMN protein in GM03813 SMA patient cells expressing DcpS variants; conditions: background of reduced endogenous DcpS
# Procedure: as §1
Molecule,"splicing that utilizes the DcpS^In15 splice site 45 nucleotides downstream ([1]; 5 μM, 24 hours, RT-PCR) [%]","splicing with both sites blocked and skipping of exon 4 entirely ([1]; 5 μM, 24 hours, RT-PCR) [%]","utilization of the endogenous exon 4 splice site ([1]; 5 μM, 24 hours, RT-PCR)",level of DcpS^In15 mRNA ([1]; antisense oligonucleotide splice switching),fl-SMN2 mRNA levels (fl-SMN2 mRNA),SMN protein level (Western) (SMN protein)
"5′ TTCCAGCCAGAAA CCTTTACCTGCT 3′ (antisense TTCCAGCCAGAAACCTTTACCTGCT; vivo-morpholino guanidinium dendrimer delivery moiety, chemistry not fully specified) [vivo-morpholino oligonucleotide, antisense morpholino oligonucleotide containing a cell permeable guanidinium based dendramer delivery system (vivo-morpholino; GeneTools LLC)]",~50,~50,completely inhibits,increased level,,
B1,,,,,not observed,not observed
